Data set [1] in a line: Plasma concentration in Duncan Hartley guinea pig at 10 mg/kg, po. Format: ADME, organism-based, Cavia porcellus. On the set-up: dose 10 mg/kg, route oral. The conditions noted are these: in vivo.
Data set [2] can be described thus: Oral bioavailability in Sprague-Dawley rat at 1 mg/kg. As to conditions: in vivo. It is filed as ADME, organism-based.
Data set [3] in a line: Mean residence time in Sprague-Dawley rat at 1 mg/kg, po. Format: ADME, organism-based. The conditions noted are these: in vivo. On the set-up: dose 1 mg/kg, route oral.
The nature of data set [4]: Volume of distribution at steady state in Sprague-Dawley rat at 1 mg/kg, iv. Format: ADME, organism-based. On the set-up: dose 1 mg/kg, route intravenous. As to conditions: in vivo, read-out: Vdss.

What is called bioavailability is dose-corrected exposure relative to a reference, in per cent. Low readings indicate little systemic uptake, high ones much systemic uptake. The term MRT denotes the average time that molecules of a dose stay in the body. In data set [1], `O=C(N[C@H]1CCC[C@H](CO)C1)C1CCN(c2nc3cc(Cl)c(C(F)(F)F)cc3o2)CC1` came in with a concentration of 1600 nM. The molecule further displayed a bioavailability in data set [2] of 42%. In data set [3], the MRT is 7.22 h. Further, the Vd in data set [4] was found to be 14 L/kg.
The matching figures for `O=C(N[C@H]1CCC[C@H](CO)C1)C1CCN(c2nc3cc(Cl)c(-c4ccc(Cl)cc4)cc3o2)CC1`: 1200 nM, 59%, 4.42 h and 3 L/kg.
Regarding `O=C(N[C@H]1CCC[C@H](CO)C1)C1CCN(c2nc3cc(Cl)ccc3o2)CC1`, the bioavailability in data set [2] is 66%. For the same molecule, in data set [3], the MRT amounted to 0.7 h. Further, the Vd in data set [4] was 0.72 L/kg.
As to `CCOc1ccc(-c2cc3oc(N4CCC(C(=O)N[C@H]5CCC[C@H](CO)C5)CC4)nc3cc2Cl)cc1`, the bioavailability in data set [2] amounted to 17%. Also, the MRT in data set [3] came to 6.26 h. Moreover, the Vd in data set [4] amounted to 2.4 L/kg.
`O=C(N[C@H]1CCC[C@H](CO)C1)C1CCN(c2nc3cc(Cl)c(-c4ccc(OC(F)(F)F)cc4)cc3o2)CC1` showed a concentration in data set [1] of 510 nM. Further, the bioavailability in data set [2] was determined as 86%. This molecule showed an MRT in data set [3] of 7.78 h. Also, the Vd in data set [4] came to 6.4 L/kg.
As for `CCc1cc2oc(N3CCC(C(=O)N[C@H]4CCC[C@H](CO)C4)CC3)nc2cc1Cl`, the MRT in data set [3] amounted to 0.44 h. In data set [4], the Vd is 2.1 L/kg.
Turning to `O=C(N[C@H]1CCC[C@H](CO)C1)C1CCN(c2nc3cc(Cl)c(C(F)F)cc3o2)CC1`, in data set [3], the MRT was found to be 0.39 h. For the same molecule, the Vd in data set [4] worked out at 1.4 L/kg.
Molecule `COc1ccc2cc([C@H](C)C(=O)O)ccc2c1` [NAPROXEN] displayed a concentration in data set [1] of 154000 nM.

The record behind these values is ChEMBL document CHEMBL2390914, “Discovery and SAR of PF-4693627, a potent, selective and orally bioavailable mPGES-1 inhibitor for the potential treatment of inflammation” (Bioorg Med Chem Lett, 2013).
